The values below come from publication PMC10897374, “Synthetic angiotensin II peptide derivatives confer protection against cerebral and severe non-cerebral malaria in murine models” (Scientific Reports, 2024).

Where a SMILES comes first, the peptide text is derived from it. Bridges are numbered along the chain shown (N, C = ends). Where no end group is shown, it is not given here.

One series has as its system mouse muscle tissue. As to conditions: cited from earlier work.
The test system of series [1] is C57BL/6 mice infected with P. berghei ANKA. Description: SHIRPA behavioral tests in the ECM model. It is filed as in vivo, mouse. The note with it: day 5 post-infection, difference of scores before and after infection, vs vehicle (PBS). From the text:
C57BL/6 mice were used for the experimental cerebral malaria model, and the assays were defined by the presence of at least two of the following clinical signs of neurological involvement: ataxia, paralysis of the limbs, poor correction reflex, convulsions, and coma. A series of SHIRPA tests (SmithKline Beecham, Harwell, Imperial College, Royal London Hospital, phenotype assessment) was used to evaluate behavioral, motor, and neurological changes during the development of the P. berghei infection. Tests aimed at evaluating cognitive and behavioral parameters were selected to assess brain impairment of the mice. The tests described below were initially performed on animals not yet infected at day 0. Next, the mice were treated and infected as described earlier. Five days after infection, the tests were repeated and the results were expressed as the difference between the sum of the scores before and after infection with P. berghei. […]
After five minutes of the test described above, the animals were transferred to the arena without being touched. The observation of the immediate reactions to the new environment was recorded for thirty seconds and a score was assigned.
While mice were still in the arena, the number of squares of 11 cm^2 of the arena that the animal stepped into with four legs at the same time was quantified for thirty seconds. […]

Series [2] deals with Plasmodium berghei ANKA. Description: Experimental cerebral malaria (ECM) model: parasitemia and survival. The series is classed as in vivo, C57BL/6 mice. On the procedure:
Six- to eight-week-old male C57BL/6 mice were provided by the Oswaldo Cruz Foundation (FIOCRUZ—Rio de Janeiro, Brazil). The mice were housed in appropriate cages with free access to food and fresh water in a room with controlled temperature (22–24 °C) with a light/dark cycle of 12 h.
(§1) A cryopreserved sample of erythrocytes infected with P. berghei ANKA (kindly provided by Dr. Leonardo J. Carvalho, La Jolla University, San Diego, CA) was thawed and 1 × 10^6 erythrocytes infected with P. berghei ANKA were injected intraperitoneally (i.p.) in the C57BL/6 mice. Parasitemia was monitored from the prepatent period until parasitemia was sufficient for infection of the experimental animal groups (7 male mice per group), i.e., 5–8% parasitemia per mL of blood (injection of 200 µL in each mouse).
The same protocol was performed with 6- to 8-week-old BALB/c mice also provided from FIOCRUZ (8 male mice per group). Each group was treated one hour before infection (day zero) i.p. at 100 ng Kg^−1 for five consecutive days. The dose used was similar to that used for Ang II in in vivo studies, as described by Gallego-Delgado et al., 2015. […] After 3 days, parasitemia was evaluated by blood smear from a droplet of blood collected from the lateral tail vein of each animal and colored with the hematological Diff-Quick® kit. The survival of the animals was also monitored daily. […]

Series [3] concerns Plasmodium berghei ANKA. Put plainly: Severe non-cerebral malaria model: parasitemia and survival. It is filed as in vivo. The note with it: BALB/c mice. On the procedure:
as §1
The same protocol was performed with 6- to 8-week-old BALB/c mice also provided from FIOCRUZ (8 male mice per group). […] After 3 days, parasitemia was evaluated by blood smear from a droplet of blood collected from the lateral tail vein of each animal and colored with the hematological Diff-Quick® kit. The survival of the animals was also monitored daily. […]
C57BL/6 (cerebral malaria model) and BALB/c (non-cerebral malaria model) mice received a single daily dose (100 ng Kg^−1 min^−1) of Ang II (brown line), Ang II-SS (orange line), VIPF (blue line), or vehicle (PBS, black line) for 5 days. […] Parasitemia was monitored by Diff-Quick stained blood smears from day 3 to day 7 for C57BL/6 mice (A) and from day 3 to day 9 for BALB/c mice (B). Percentage of survival for C57BL/6 mice (C) and BALB/c mice (D) mice was monitored daily starting on day 6 p.i. […]

The test system of the next series is Plasmodium. The note with it: same mouse model (ECM), infected mice treated with the ACE inhibitor; cited from earlier work.

On to “CDRVYIHPFC (disulfide 1-10 (inferred)) [Ang II-SS, disulfide bridge-constrained derivative of Ang II]”, for which the contractile activity result in the series on mouse muscle tissue is reported as “did not elicit significant contractile activity”. In addition, the SHIRPA behavioral score result in series [1] is “reduced the SHIRPA behavioral score”. The mouse survival result with Plasmodium berghei ANKA [2] (C57BL/6 mice (ECM), 100 ng Kg−1 min−1 i.p. daily for 5 days, Kaplan–Meier, log rank vs vehicle, n = 8) was “increased mouse survival”; in the series on Plasmodium berghei ANKA [3] (100 ng Kg−1 min−1 i.p. daily for 5 days, Kaplan–Meier, log rank vs vehicle, n = 8), “increased mouse survival”. Besides, the “parasitemia level at day 7 p.i.” value in the series on Plasmodium berghei ANKA [2] (C57BL/6 mice, 100 ng Kg−1 min−1 i.p. daily until day 4 p.i., first dose 1 h before infection, blood smear, vehicle group reached 18% parasitemia) is “approximately 10%”. In the series with Plasmodium berghei ANKA [3] (100 ng Kg−1 min−1 i.p. daily until day 4 p.i., blood smear day 3 to 9 p.i., especially at day 9 p.i., vs vehicle), the effect on parasitemia result is “reduced parasitemia”.

With `C[C@H](CS)C(=O)N1CCC[C@H]1C(=O)O` [captopril], the effect on parasitemia result in the series on Plasmodium is “discrete but significant reduction in parasitemia”.

As to `CC[C@H](C)[C@H](NC(=O)[C@@H](N)C(C)C)C(=O)N1CCC[C@H]1C(=O)N[C@@H](Cc1ccccc1)C(=O)O` [VIPF] (H-VIPF-OH), the contractile activity entry with mouse muscle tissue was “did not elicit significant contractile activity”.
